Measurements taken from patent publication US20240336896A1, “MODIFIED PRODUCER CELLS FOR EXTRACELLULAR VESICLE PRODUCTION” (LONZA SALES AG, priority 2021, published 2024).
Where two headings read alike, the source gives them in different places.

Experiments:
[1] = test system: 1919 HiBit reporter cell line; assay: HiBit luciferase reporter assay of EV production, agent supplemented into media; assay type: cell-based
HiBit reporter cell line [2] = details: for Day 4 VCD / Day 4 Viability: 4 day; for D6 VCD / Day 6 Viability: 6 day
[3] = test system: HEK producer cell line producing Protein X EVs (PrX); assay: EV yield in total particles, PrX producer cells; assay type: cell-based
Procedure: (§1) The cells lines were treated with simvastatin (5 nM and 10 nM) for 10 days prior to EV purification.

[4] = test system: HEK producer cell line producing IL-12 EVs (exoIL-12); assay: EV yield in total particles, exoIL-12 producer cells; assay type: cell-based
Procedure: as §1

CHO-S cells = assay: EV yield in total particles from CHO cells; assay type: cell-based, Chinese Hamster
Procedure: Table 10 quantifies the results. A similar 5.6-fold increase relative to untreated controls was also observed in CHO-S cells six days after being treated with 6 nM simvastatin.

human adipose MSC cells = assay: relative EV yield by AEX UHPLC peak areas of clarified conditioned media; assay type: cell-based; details: 6 nM simvastatin, 4 days, serum free media
Procedure: When cultures reached approximately 50% confluence, the media was removed and replaced with the identical growth media (control) or the growth media supplemented with […] simvastatin (sim treated). The cultures were incubated for an additional 4 days at which point the conditioned media was collected and the cell debris removed by centrifugation. The clarified condition media was then analyzed by anion exchange (AEX) ultra high-performance liquid chromatography (UHPLC), and the relative amount of extracellular vesicles in each sample was estimated by comparing peak areas. Table 11 quantifies the results, showing a 2.6 fold increase in EV production by adipose MSC cells treated with 6 nM simvastatin.

HiBit reporter cell line [5] = assay: viability and viable cell density (VCD) of treated producer cells
[6] = test system: primary murine polymorphonuclear neutrophils, RAW264.7 monocytic cells, and 4T1 murine mammary cancer cells; details: Baek et al., Endocrinology 2021; cited from earlier work

Structure (SMILES): CN(C)C(=O)N[C@H]1CC[C@H](CCN2CCN(c3cccc(Cl)c3Cl)CC2)CC1 [Cariprazine, cariprazine]
- Luciferase relative to control ([1]; 2 μM cariprazine, Day 2): 0.8
- Luciferase relative to control ([1]; 2 μM cariprazine, Day 3): 1.8
- Luciferase relative to control ([1]; 5 μM cariprazine, Day 2): 1
- Luciferase relative to control ([1]; 5 μM cariprazine, Day 3): 2.6
- Luciferase relative to control ([1]; 10 μM cariprazine, Day 2): 0.8
- Luciferase relative to control ([1]; 10 μM cariprazine, Day 3): 2.4
- Day 4 VCD (HiBit reporter cell line [2]): 5.14 e6/ml
- Day 4 VCD (HiBit reporter cell line [2]; 5 μM): 7.73 e6/ml
- Day 4 Viability (HiBit reporter cell line [2]; 5 μM): 95.6%
- Day 4 Viability (HiBit reporter cell line [2]; 10 μM): 89.7%
- D6 VCD (HiBit reporter cell line [2]; 5 μM): 11.97 e6/ml
- Day 6 Viability (HiBit reporter cell line [2]; 5 μM): 92.4%
- D6 VCD (HiBit reporter cell line [2]; 10 μM): 5.13 e6/ml
- Day 6 Viability (HiBit reporter cell line [2]; 10 μM): 81.0%

Structure (SMILES): CC(C)c1nc(N(C)S(C)(=O)=O)nc(-c2ccc(F)cc2)c1/C=C/[C@@H](O)C[C@@H](O)CC(=O)O [rosuvastatin]
- EV expression (luminescence/cell) ([1]; 10, 25, 50, 75, 100 nM, four days post induction): dose-dependent increase

Structure (SMILES): CCC(C)(C)C(=O)O[C@H]1C[C@@H](C)C=C2C=C[C@H](C)[C@H](CC[C@@H]3C[C@@H](O)CC(=O)O3)[C@H]21 [Simvastatin, simvastatin]
- Luciferase relative to control ([1]; 10 nM simvastatin, Day 2): 2.3
- Luciferase relative to control ([1]; 10 nM simvastatin, Day 3): 4.7
- Luciferase relative to control ([1]; 10 nM simvastatin, Day 6): 9.6
- Luciferase relative to control ([1]; 50 nM simvastatin, Day 2): 5.3
- IC50 ([1]; simvastatin supplemented into the media, inhibited quantity not stated): 0.01 to 0.02 µM
- Relationship to Control ([3]; 5 nM simvastatin for 10 days): 4x
- Total Particles ([3]; 5 nM simvastatin for 10 days prior to EV purification): 4.5E+11
- Relationship to Control ([4]; exoIL-12, 5 nM simvastatin for 10 days): 3.5x^
- Total Particles ([4]; exoIL-12, 5 nM simvastatin for 10 days prior to EV purification): 1.79E+11
- Relationship to Control ([4]; exoIL-12, 10 nM simvastatin for 10 days): 7x
- Total Particles ([4]; exoIL-12, 10 nM simvastatin for 10 days prior to EV purification): 3.50E+11
- increase in EV yield relative to untreated controls (CHO-S cells; CHO-S cells six days after being treated with 6 nM simvastatin): 5.6 fold
- Relationship to Control (CHO-S cells; CHO-S, 10 nM simvastatin): 5.6X
- Total Particles (CHO-S cells; CHO-S, 10 nM simvastatin): 2.22E+11
- FOLD INCREASE PER CELL EV PRODUCTION (human adipose MSC cells): 2.6 X
- FOLD INCREASE PER CELL EV PRODUCTION (human adipose MSC cells; listed as Sim): 2.6X
- D6 VCD (HiBit reporter cell line [5]; 2 nM simvastatin): 17.00 e6/ml
- Day 4 VCD (HiBit reporter cell line [5]; 2 nM simvastatin): 10.41 e6/ml
- Day 4 Viability (HiBit reporter cell line [5]; 2 nM simvastatin): 94.9%
- Day 6 Viability (HiBit reporter cell line [5]; 2 nM simvastatin): 95.5%
- D6 VCD (HiBit reporter cell line [5]; 5 nM simvastatin): 15.5 e6/ml
- Day 4 VCD (HiBit reporter cell line [5]; 5 nM simvastatin): 9.16 e6/ml
- Day 4 Viability (HiBit reporter cell line [5]; 5 nM simvastatin): 92.7%
- Day 6 Viability (HiBit reporter cell line [5]; 5 nM simvastatin): 95.7%
- tolerability of producer cells (HiBit reporter cell line [5]; 10 nM dose, batch refeed in shake flask, duration of the study): well tolerated
- D6 VCD (HiBit reporter cell line [5]; 10 nM simvastatin): 12.41 e6/ml
- Day 4 VCD (HiBit reporter cell line [5]; 10 nM simvastatin): 8.66 e6/ml
- Day 4 Viability (HiBit reporter cell line [5]; 10 nM simvastatin): 88.8%
- Day 6 Viability (HiBit reporter cell line [5]; 10 nM simvastatin): 93.6%
- viable cell density (VCD) (HiBit reporter cell line [5]; simvastatin alone in HiBit cultures, Example 7): characteristic decrease

Structure (SMILES): CC(C)CCC[C@@H](C)[C@H]1CC[C@H]2[C@@H]3CC=C4C[C@@H](O)CC[C@]4(C)[C@H]3CC[C@]12C [synthetic cholesterol, cholesterol]
- impact on exosome production ([1]; elevated cholesterol alone): no impact
- simvastatin induction of EV production ([1]; supplemental cholesterol together with simvastatin, still higher than control cultures lacking statin): largely attenuated
- impact on cell culture VCD (HiBit reporter cell line [2]): no impact

Structure (SMILES): Cc1nc[nH]c1CN1CCN(C(=O)N[C@@H](CC(C)C)C(=O)O)[C@@H](Cc2ccccc2)C1=O [GGTI-2418]
- effect on exosome production (RLU) ([1]; days 2, 4, 6, and 8): no effect
- effect on cell density (VCD) (HiBit reporter cell line [5]; days 2, 4, 6, and 8): no effect

Structure (SMILES): C[C@@H](CO)CCC[C@@H](C)[C@H]1CC[C@H]2[C@@H]3CC=C4C[C@@H](O)CC[C@]4(C)[C@H]3CC[C@]12C [27-hydroxycholesterol]
- exosome production [6]: increased exosome production
